Data from PMC7874389 (Nature, 2020).

Key:
C57BL/6J mice [1] = experiment: Head-twitch response; conditions: i.p., 5-MeO-DMT 10 mg/kg, IBG and TBG fumarate salts 10 and 50 mg/kg
[2] = system: rodents trained to discriminate DOM from saline; conditions: cited from earlier work
C57BL/6J mice [3] = conditions: cited from earlier work
[4] = system: mouse primary sensory cortex; experiment: In vivo spine dynamics, transcranial 2-photon imaging; conditions: 24 h after treatment; DOI 10 mg/kg, TBG 50 mg/kg i.p.
C57/BL6J mice = experiment: Forced swim test in the absence of UMS; type: in vivo, mouse
[5] = system: larval zebrafish expressing GCaMP5; experiment: Larval zebrafish seizure experiments; type: in vivo; conditions: IBO and TBG 50 μM, PTZ 15 mM, 1 h
larval zebrafish = experiment: Larval zebrafish behavioral profiling; type: in vivo; conditions: 1–200 μM, 7 dpf, battery of light and acoustic stimuli

Compound: COc1ccc2[nH]cc(CCN(C)C)c2c1 [5-MeO-DMT, 5-methoxy-N,N-dimethyltryptamine]
- head-twitch response (hallucinogenic potential) (C57BL/6J mice [1]): produces a robust HTR

Compound: COc1ccc2c(CCN(C)C)c[nH]c2c1 [6-MeO-DMT]
- substitution for DOM [2]: did not substitute for the hallucinogen 2,5-dimethoxy-4-methylamphetamine (DOM) at any dose
- head-twitch response (C57BL/6J mice [3]): does not produce a head-twitch response

Compound: COc1cc(CC(C)N)c(OC)cc1I (centres unmarked) [DOI, 2,5-dimethoxy-4-iodoamphetamine]
- spine elimination [4]: without impacting spine elimination
- spine formation [4]: increased spine formation

Compound: CNC1(c2ccccc2Cl)CCCCC1=O (centres unmarked) [KET, ketamine]
- FST immobility (C57/BL6J mice; 24 h following administration, TBG 50 mg/kg, ketamine 3 mg/kg i.p.): significantly reduced immobility
- durability of FST effect (C57/BL6J mice; 7 d post drug administration): appeared to be more durable

Compound: C1CCc2nnnn2CC1 [PTZ, pentylenetetrazole]
- seizurogenic potential (neural activity, GCaMP5 fluorescence) [5]: excessive neural activity
- behavioral profile versus vehicle and lethal (eugenol) controls (larval zebrafish): produce behavioral phenotypes more closely resembling a lethal phenotype

Compound: O=S1OCC2C(CO1)C1(Cl)C(Cl)=C(Cl)C2(Cl)C1(Cl)Cl (centres unmarked) [endosulfan]
- behavioral profile versus vehicle and lethal (eugenol) controls (larval zebrafish): produce behavioral phenotypes more closely resembling a lethal phenotype

Compound: O=C(CCCN1CCC(O)(c2ccc(Cl)cc2)CC1)c1ccc(F)cc1 [haloperidol]
- behavioral profile versus vehicle and lethal (eugenol) controls (larval zebrafish): more closely resembling the lethal control

Compound: O=C1NCCN1CCN1CCC(c2cn(-c3ccc(F)cc3)c3ccc(Cl)cc23)CC1 [sertindole]
- behavioral profile versus vehicle and lethal (eugenol) controls (larval zebrafish): more closely resembling the lethal control

Compound: CC(C)(C)c1ccc(C(O)CCCN2CCC(C(O)(c3ccccc3)c3ccccc3)CC2)cc1 (centres unmarked) [terfenadine]
- behavioral profile versus vehicle and lethal (eugenol) controls (larval zebrafish): more closely resembling the lethal control

Compound: picrotoxin
- behavioral profile versus vehicle and lethal (eugenol) controls (larval zebrafish): produce behavioral phenotypes more closely resembling a lethal phenotype
